Among the test systems are U251 CNS; MCF7 breast; HCC-2998 colon; A549 NSCLC; HT29 colon; SNB-19 CNS; A498 renal; CAKI-1 renal; OVCAR-3 ovarian; NCI/ADR-RES ovarian.
Common to all, as to assay: DTP human tumour cell line panel, 48 h

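Step 1: Grow cells in 96-well plates. Step 2: Expose to compound for 48 hours at 5 concentrations. Step 3: Interpolate endpoints linearly; if unreached, use highest concentration. Abbreviation: GI50, concentration required for 50% inhibition of growth. Definition used: TGI = concentration required for complete inhibition of growth.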

What is called GI50 is the concentration that inhibits growth by half. Broadly, the TGI is the concentration at which net growth stops. A higher TGI goes with less potent growth arrest. `CN1CCN(c2ccc(NC3=C(Cl)C(=O)c4ncccc4C3=O)cc2C(F)(F)F)CC1`: the GI50 in the test with U251 CNS is 4.45 µM; with MCF7 breast, 1.7 µM; in the test with HCC-2998 colon it was 7.51 µM; in the test with A549 NSCLC, 18.8 µM; in the test on HT29 colon it was 2.34 µM; with SNB-19 CNS it was 13.6 µM. Besides, the GI50 in the test on A498 renal was 11.3 µM; in the test with CAKI-1 renal, 1.72 µM; with OVCAR-3 ovarian, 0.297 µM; in the test with NCI/ADR-RES ovarian it was 2.46 µM. For the same compound, the TGI turned out to be 17 µM in the test on U251 CNS; 4.23 µM in the test with MCF7 breast; 20.8 µM in the test on HCC-2998 colon; 38 µM with A549 NSCLC; 5.56 µM in the test with HT29 colon; 26.8 µM with SNB-19 CNS. Further, the total growth inhibition concentration (TGI) came to 24.2 µM in the test on A498 renal, 3.13 µM in the test with CAKI-1 renal, 1.11 µM with OVCAR-3 ovarian and 7.47 µM with NCI/ADR-RES ovarian.

On to `Cc1cc2cc(Oc3ccnc(Nc4cccc(CS(=O)(=O)NCCN(C)C)c4)n3)ccc2[nH]1`, for which the GI50 in the test with U251 CNS was 5.33 µM; in the test on MCF7 breast, 4.03 µM; in the test on HCC-2998 colon, 11.6 µM; in the test with A549 NSCLC it was 12 µM; in the test with HT29 colon, 2.96 µM; in the test with SNB-19 CNS it was 13 µM. For the same compound, the GI50 in the test on A498 renal was 1.04 µM; in the test on CAKI-1 renal it was 3.31 µM; in the test with OVCAR-3 ovarian it was 4.3 µM; in the test on NCI/ADR-RES ovarian it was 17.9 µM. The TGI in the test on U251 CNS worked out at 18.4 µM; in the test with MCF7 breast it was 18.4 µM; with HCC-2998 colon, 25.2 µM; in the test with A549 NSCLC, 25.5 µM; in the test on HT29 colon, 10.6 µM; with SNB-19 CNS it was 26.1 µM. For the same compound, the TGI in the test with A498 renal came to 4.19 µM; in the test with CAKI-1 renal it was 16.6 µM; in the test on OVCAR-3 ovarian it was 15.8 µM; with NCI/ADR-RES ovarian it was 43.6 µM.

As for `COc1ccc(-c2ccc(=O)oc2-c2cc(OC)c(OC)c(OC)c2)cc1O`, the GI50 in the test with U251 CNS is 0.0286 µM; in the test on MCF7 breast it was less than 0.01 µM; in the test with HCC-2998 colon, 0.0379 µM; in the test with A549 NSCLC it was 0.0595 µM; in the test with HT29 colon, 0.663 µM; with SNB-19 CNS, 0.0571 µM. For the same compound, the GI50 was 0.0315 µM with A498 renal, 0.0459 µM with CAKI-1 renal, less than 0.01 µM in the test on OVCAR-3 ovarian and 0.036 µM with NCI/ADR-RES ovarian. Besides, the TGI was greater than 100 µM in the test with U251 CNS; greater than 100 µM in the test on MCF7 breast; 0.426 µM in the test on HCC-2998 colon; greater than 100 µM with A549 NSCLC; greater than 100 µM in the test with SNB-19 CNS; greater than 77.6 µM in the test on A498 renal. Besides, the TGI in the test with CAKI-1 renal is greater than 100 µM; with OVCAR-3 ovarian, 0.16 µM; with NCI/ADR-RES ovarian it was greater than 100 µM.

With `COc1cc2c3c(n(CCCn4cccn4)c(=O)c2cc1OC)-c1cc2c(cc1C3=O)OCO2`, the GI50 with U251 CNS is 0.724 µM; with MCF7 breast it was 0.523 µM; in the test with HCC-2998 colon it was 7.13 µM; with A549 NSCLC it was 2.87 µM; with HT29 colon, 2.56 µM; in the test with SNB-19 CNS it was 1.08 µM. The GI50 in the test with A498 renal was 2.48 µM; in the test on CAKI-1 renal it was 0.577 µM; in the test on OVCAR-3 ovarian, 33.7 µM; in the test with NCI/ADR-RES ovarian it was 1.3 µM. Besides, the TGI with U251 CNS is greater than 40.4 µM; in the test on MCF7 breast, greater than 55.2 µM; with HCC-2998 colon, 64 µM; in the test with A549 NSCLC it was greater than 100 µM; in the test with HT29 colon, 25.4 µM; with SNB-19 CNS it was greater than 100 µM. For the same compound, the figures for the total growth inhibition concentration (TGI) with A498 renal, in the test with OVCAR-3 ovarian and in the test with NCI/ADR-RES ovarian were 14.2 µM, greater than 100 µM and 16.5 µM, respectively.

As for `N#C/C(=C/c1cccs1)c1cccs1`, the GI50 with U251 CNS, in the test on MCF7 breast, with HCC-2998 colon, with A549 NSCLC, in the test with HT29 colon and in the test on SNB-19 CNS was greater than 100 µM each time. For the same compound, the GI50 in the test on A498 renal, with CAKI-1 renal, in the test on OVCAR-3 ovarian and in the test on NCI/ADR-RES ovarian was greater than 100 µM in each case. Besides, the concentration for total growth inhibition (TGI) in the test with U251 CNS, in the test on MCF7 breast, in the test on HCC-2998 colon, in the test with A549 NSCLC, with HT29 colon and in the test with SNB-19 CNS was greater than 100 µM in each case. Further, the TGI in the test on A498 renal, in the test with CAKI-1 renal, in the test on OVCAR-3 ovarian and in the test on NCI/ADR-RES ovarian was greater than 100 µM each time.

Turning to `CC(C)NCCCNC1=C(Cl)C(=O)c2ccccc2C1=O`, the GI50 in the test with U251 CNS was 2.7 µM; with MCF7 breast, 4.13 µM; in the test with HCC-2998 colon, 2.14 µM; with A549 NSCLC, 11.2 µM; with HT29 colon, 2.5 µM; in the test with SNB-19 CNS, 12.8 µM. Further, the GI50 was 12.2 µM in the test with A498 renal, 5.83 µM in the test with CAKI-1 renal, 1.83 µM in the test on OVCAR-3 ovarian and 12 µM in the test with NCI/ADR-RES ovarian. For the same compound, the TGI worked out at 6.82 µM with U251 CNS; 17.5 µM in the test with MCF7 breast; 4.49 µM with HCC-2998 colon; 33.5 µM with A549 NSCLC; 5.12 µM in the test on HT29 colon; 26 µM in the test with SNB-19 CNS. Also, the concentration for total growth inhibition (TGI) with A498 renal amounted to 25.1 µM; in the test on CAKI-1 renal, 20.9 µM; with OVCAR-3 ovarian, 3.58 µM; in the test with NCI/ADR-RES ovarian, 28.6 µM.

In the case of `COc1ccccc1NC(=O)N/C(N)=N/c1nc2ccccc2s1`, the concentration for 50% growth inhibition (GI50) was 0.0655 µM in the test on U251 CNS; 0.0401 µM with MCF7 breast; 0.375 µM with HCC-2998 colon; 0.107 µM with A549 NSCLC; 0.0389 µM in the test with HT29 colon; 0.0607 µM in the test on SNB-19 CNS. Also, the GI50 is 0.24 µM with A498 renal, 0.062 µM in the test on CAKI-1 renal, 0.0403 µM with OVCAR-3 ovarian and 0.0474 µM in the test with NCI/ADR-RES ovarian. For the same compound, the TGI in the test on U251 CNS, in the test on MCF7 breast, in the test on HCC-2998 colon, in the test on A549 NSCLC, in the test with HT29 colon and with SNB-19 CNS was greater than 100 µM each time. Moreover, the TGI with A498 renal is greater than 100 µM; in the test with CAKI-1 renal, greater than 100 µM; in the test on OVCAR-3 ovarian, 0.317 µM.

For the compound `COc1cccc(NC(=O)c2ccc(C(F)(F)F)nc2Nc2ccc(Cl)cc2C)c1`, the GI50 is 11.9 µM in the test on U251 CNS; 7.96 µM with MCF7 breast; 2.9 µM in the test on HCC-2998 colon; 10.6 µM with A549 NSCLC; 10.2 µM in the test on HT29 colon; 13.8 µM with SNB-19 CNS. The GI50 in the test with A498 renal is 1.65 µM; with CAKI-1 renal, 2.76 µM; in the test on OVCAR-3 ovarian, 4.69 µM; in the test on NCI/ADR-RES ovarian, 5.6 µM. Further, the TGI stood at 24.2 µM with U251 CNS; 47.7 µM in the test on MCF7 breast; 18.7 µM in the test on HCC-2998 colon; 22.4 µM with A549 NSCLC; 22.1 µM with HT29 colon; 28.7 µM in the test with SNB-19 CNS. Besides, the TGI in the test on A498 renal came to 11.9 µM; with CAKI-1 renal, 17.1 µM; in the test on OVCAR-3 ovarian it was 19.9 µM; with NCI/ADR-RES ovarian, 20.2 µM.

Source of the values: PubChem BioAssay (NCI).
